# Key:
# [1] = target: T1, thromboxane A2 (TxA2) receptor (Cavia porcellus, UniProt A0A286Y4I8); assay: TxA2 antagonist action by binding assay; conditions: washed guinea pig platelets, 1 nM [3H]-SQ29,548, 45 minutes at 25° C.
# T1 construct: to obtain washed platelets; from tissue; host or cells: washed platelets of male Hartley guinea pigs
# T1 sequence (A0A286Y4I8 1-347): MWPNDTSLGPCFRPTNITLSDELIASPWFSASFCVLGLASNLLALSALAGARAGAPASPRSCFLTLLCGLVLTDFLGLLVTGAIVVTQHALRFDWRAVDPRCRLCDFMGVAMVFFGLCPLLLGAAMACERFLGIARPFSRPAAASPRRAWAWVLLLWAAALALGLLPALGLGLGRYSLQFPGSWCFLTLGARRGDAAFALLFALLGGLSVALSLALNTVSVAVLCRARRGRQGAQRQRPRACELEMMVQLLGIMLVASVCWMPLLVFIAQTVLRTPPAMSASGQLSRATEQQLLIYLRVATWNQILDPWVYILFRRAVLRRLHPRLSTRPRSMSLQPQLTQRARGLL
# Protocol: (1) TxA2 antagonist action by binding assay Guinea pigs (Hartley; male; body weight=approximately 500 g) were anesthetized with ether, and the blood was collected into sodium citrate (final concentration=0.38%). The preparation of platelets was carried out at room temperature. The platelet rich plasma was obtained by centrifugation at 980 rpm for 10 minutes. One tenth (1/10) amount of 77 mM-EDTA-Na (pH 7.4) was added to the platelet rich plasma, and the mixture was centrifuged for 10 minutes at 3000 rpm. The suspension was again centrifuged at 3000 rpm for 10 minutes. The precipitate was further resuspended in a suspension buffer (2) shown in Table 2 to obtain washed platelets. The number of platelets was counted by an automatic blood cell counter (Sysmex Microcellcounter F-800) and the sample was diluted with the suspension buffer to 4×10^8 cells/ml. The platelets, sample solution and labeled compounds were placed into plastic tubes in amounts (volumes) shown in the following Table 3, incubated for 45 minutes at 25° C., and then the mixture was filtered using a cell harvester (Brandel cell harvester M-24R) by a glass fiber filter (Whatman GF/B). After the filter was sufficiently dried, the scintillation was counted by a scintillation counter (Beckman LS5000TD). IC50 was calculated from (binding)/(control binding) ratio in the presence of an antagonist. [table 3: the next 10 blocks are its lines as printed, fixed-width]
# rat platelet = assay: Inhibitory activity of aggregation in rat platelet; format: cell-based; conditions: rat platelet rich plasma, arachidonic acid (final concentration 0.5 mM) as inducer; read-out: C: Inhibitory activity of aggregation in rat platelet (IC50; μM)
# Protocol: (3) Inhibitory Activity of Aggregation in Rat Platelet The abdomen of etherized rat was open, and blood was taken from the abdominal arteries, using a sodium citrate solution (final concentration was 0.38%). The blood was centrifuged at 1100 rpm for 10 minutes, and the supernatent was separated as the platelet rich plasma. The plasma was further centrifuged at 2000 rpm for 15 minutes to obtain the supernatent as a platelet poor plasma. The platelet rich plasma (280 μl) was placed in a measuring cuvette and preincubated for 1 minute at 37° C. Then, a sample solution (10 μl) was added. After 2 minutes, an arachidonic acid solution (final concentration=0.5 mM) (10 μl) was added as an inducer. The change in light transmission was recorded for 5 minutes.
Structure (SMILES),IC50 [1],IC50 (rat platelet)
"O=C(O)Cc1ccc(NC(=O)C(CCc2ccccc2)NS(=O)(=O)c2ccc(Cl)cc2)cc1 (racemic) [Example 172, (RS)-N-(4-(carboxymethyl)phenyl)-2-(4-chlorobenzenesulfonylamino)-4-phenylbutanamide]",0.072 µM,1.7 µM
"O=C(O)CCc1ccc(NC(=O)C(CCc2ccccc2)NS(=O)(=O)c2ccc(Cl)cc2)cc1 (racemic) [Example 174, (RS)-N-(4-(2-carboxyethyl)phenyl)-2-(4-chlorobenzenesulfonylamino)-4-phenylbutanamide]",0.17 µM,5.3 µM
"CCCCC(NS(=O)(=O)c1ccc(Br)cc1)C(=O)Nc1ccc(CC(=O)O)cc1 (racemic) [Example 226, (RS)-2-(4-bromobenzenesulfonylamino)-N-(4-(carboxymethyl)phenyl)hexanamide]",0.072 µM,0.53 µM
"CC(C)CC(NS(=O)(=O)c1ccc(Cl)cc1)C(=O)Nc1ccc(CC(=O)O)cc1 (racemic) [Example 232, (RS)-N-(4-(carboxymethyl)phenyl)-2-(4-chlorobenzenesulfonylamino)-4-methylpentanamide]",0.16 µM,1.7 µM
"CSCCC(NS(=O)(=O)c1ccc(Cl)cc1)C(=O)Nc1ccc(CC(=O)O)cc1 (racemic) [Example 233, (RS)-N-(4-(carboxymethyl)phenyl)-2-(4-chlorobenzenesulfonylamino)-4-methylthiobutanamide]",0.17 µM,0.17 µM
"CCSCCC(NS(=O)(=O)c1ccc(Cl)cc1)C(=O)Nc1ccc(CC(=O)O)cc1 (racemic) [Example 242, (RS)-N-(4-(carboxymethyl)phenyl)-2-(4-chlorobenzenesulfonylamino)-4-ethylthiobutanamide]",0.032 µM,0.16 µM
"CCSCCC(NS(=O)(=O)c1ccc(Cl)cc1)C(=O)Nc1ccc(CCC(=O)O)cc1 (racemic) [Example 244, (RS)-N-(4-(2-carboxyethyl)phenyl)-2-(4-chlorobenzenesulfonylamino)-4-ethylthiobutanamide]",0.29 µM,1.6 µM
"O=C(O)Cc1ccc(NC(=O)C(Cc2ccccc2)NS(=O)(=O)c2ccc(Cl)cc2)cc1 (racemic) [Example 247, (RS)-N-(4-(carboxymethyl)phenyl)-2-(4-chlorobenzenesulfonylamino)-3-phenylpropanamide]",0.046 µM,0.54 µM
"O=C(O)CCc1ccc(NC(=O)C(Cc2ccccc2)NS(=O)(=O)c2ccc(Cl)cc2)cc1 (racemic) [Example 249, (RS)-N-(4-(2-carboxyethyl)phenyl)-2-(4-chlorobenzenesulfonylamino)-3-phenylpropanamide]",0.024 µM,0.18 µM
"O=C(O)Cc1ccc(NC(=O)C(Cc2ccccc2)NS(=O)(=O)c2ccc(Br)cc2)cc1 (racemic) [Example 251, (RS)-2-(4-bromobenzenesulfonylamino)-N-(4-(carboxymethyl)phenyl)-3-phenylpropanamide]",0.012 µM,0.17 µM
"O=C(O)Cc1ccc(NC(=O)C(CC2CCCCC2)NS(=O)(=O)c2ccc(Cl)cc2)cc1 (racemic) [Example 260, (RS)-N-(4-(carboxymethyl)phenyl)-2-(4-chlorobenzenesulfonylamino)-3-cyclohexylpropanamide]",0.06 µM,0.89 µM
"CCCC[C@H](NS(=O)(=O)c1ccc(Cl)cc1)C(=O)Nc1ccc(CC(=O)O)cc1 [Example 223, (S)-N-(4-(carboxymethyl)phenyl)-2-(4-chlorobenzenesulfonylamino)hexanamide]",0.13 µM,0.17 µM
"CCCC[C@@H](NS(=O)(=O)c1ccc(Cl)cc1)C(=O)Nc1ccc(CC(=O)O)cc1 [Example 224, (R)-N-(4-(carboxymethyl)phenyl)-2-(4-chlorobenzenesulfonylamino)hexanamide]",48.2 µM,3.4 µM
"CSCC[C@H](NS(=O)(=O)c1ccc(Cl)cc1)C(=O)Nc1ccc(CC(=O)O)cc1 [Example 234, (S)-N-(4-(carboxymethyl)phenyl)-2-(4-chlorobenzenesulfonylamino)-4-methylthiobutanamide]",0.052 µM,0.17 µM
"CSCC[C@@H](NS(=O)(=O)c1ccc(Cl)cc1)C(=O)Nc1ccc(CC(=O)O)cc1 [Example 235, (R)-N-(4-(carboxymethyl)phenyl)-2-(4-chlorobenzenesulfonylamino)-4-methylthiobutanamide]",22 µM,17.1 µM
"CSCC[C@H](NS(=O)(=O)c1ccc(Cl)cc1)C(=O)Nc1ccc(CCC(=O)O)cc1 [Example 237, (S)-N-(4-(2-carboxyethyl)phenyl)-2-(4-chlorobenzenesulfonylamino)-4-methylthiobutanamide]",0.15 µM,0.3 µM
"CSCC[C@H](NS(=O)(=O)c1ccc(Br)cc1)C(=O)Nc1ccc(CC(=O)O)cc1 [Example 239, (S)-2-(4-bromobenzenesulfonylamino)-N-(4-(carboxymethyl)phenyl)-4-methylthiobutanamide]",0.026 µM,0.055 µM
"CSCC[C@H](NS(=O)(=O)c1ccc(Br)cc1)C(=O)Nc1ccc(CCC(=O)O)cc1 [Example 240, (S)-2-(4-bromobenzenesulfonylamino)-N-(4-(2-carboxyethyl)phenyl)-4-methylthiobutanamide]",0.099 µM,0.17 µM
"CSCC[C@H](NS(=O)(=O)c1ccc(Br)cc1)C(=O)Nc1cccc(C(=O)O)c1 [Example 241, (S)-2-(4-bromobenzenesulfonylamino)-N-(3-carboxyphenyl)-4-methylthiobutanamide]",0.014 µM,0.053 µM
"O=C(O)Cc1ccc(NC(=O)[C@H](Cc2ccccc2)NS(=O)(=O)c2ccc(Cl)cc2)cc1 [Example 248, (S)-N-(4-(carboxymethyl)phenyl)-2-(4-chlorobenzenesulfonylamino)-3-phenylpropanamide]",0.012 µM,0.053 µM
"O=C(O)CCc1ccc(NC(=O)[C@H](Cc2ccccc2)NS(=O)(=O)c2ccc(Cl)cc2)cc1 [Example 250, (S)-N-(4-(2-carboxyethyl)phenyl)-2-(4-chlorobenzenesulfonylamino)-3-phenylpropanamide]",0.029 µM,0.17 µM
"O=C(O)Cc1ccc(NC(=O)[C@H](Cc2ccccc2)NS(=O)(=O)c2ccc(Br)cc2)cc1 [Example 252, (S)-2-(4-bromobenzenesulfonylamino)-N-(4-(carboxymethyl)phenyl)-3-phenylpropanamide]",0.0071 µM,0.055 µM
"O=C(O)CCc1ccc(NC(=O)[C@H](Cc2ccccc2)NS(=O)(=O)c2ccc(Br)cc2)cc1 [Example 254, (S)-2-(4-bromobenzenesulfonylamino)-N-(4-(2-carboxyethyl)phenyl)-3-phenylpropanamide]",0.005 µM,0.051 µM
"O=C(O)c1cccc(NC(=O)[C@H](Cc2ccccc2)NS(=O)(=O)c2ccc(Br)cc2)c1 [Example 257, (S)-2-(4-bromobenzenesulfonylamino)-N-(3-carboxyphenyl)-3-phenylpropanamide]",0.0087 µM,0.17 µM

# Reference: patent US5650428A, “Arylsulfonamide derivative and pharmaceutical compositions and use thereof” (NKK Corporation, priority 1993, dated 1997)
